US10053502B2, “Selective inhibitors of c-Fos and their antiproliferative properties” (INSERM (INSTITUT NATIONAL DE LA SANTÉ ET DE LA RECHERCHE …, priority 2014, dated 2018)
pIC50: −log10 of the molar value. Like-named read-outs stand apart in the source and are kept apart here. Residues, ends and D or L forms follow the SMILES beside them.

Columns and labels:
[1] = tested on: sNF96.2 (MPNST cell line); type: cell-based, human; conditions: MTT, 96 hours; for anti-proliferative properties on MPNST (words): 2 to 100 μM
Procedure: The inventors have further tested 4 different peptides in the Peripheral Nerve Sheath Tumors (MPNST) cell lines sNF96.2, which was deposited to the ATCC under the reference ATCC® CRL-2884™.
Cells were cultured at DayO in a complete medium (DMEM with 10% of fetal bovine serum). Then they were deprived at Day2 (24 hours in a medium comprising DMEM with 0.1% fetal bovine serum followed by 24 hours in DMEM alone).
At Day 4, the cells were incubated with a dose escalation regimen of pepsignal peptides from 2 to 100 μM.
The proliferation tests were carried out 96 hours later.
Proliferation was analysed by a MTT assay. The MTT assay is a colorimetric assay for assessing cell viability. The viability is measured by the metabolic activity if the cells, which is determined by the activity of a mitochondrial succinate dehydrogenate. Typically, the cell media goes from yellow to blue and the intensity of the coloration is proportional to the number of viable cells. Coloration is determined by […] at 570 nm.
The inventors performed three independent experiments, each point being performed in duplicate for each experiment.

[2] = tested on: human coronary arterial endothelial cells (HCAEC); test: Serum-induced proliferation of HCAEC, BrdU incorporation; type: cell-based; conditions: 10% serum, peptide 3-12 μM, U0126 10 μM, Paclitaxel 10 nM, VIVIT 100 μM
Procedure: Using the same protocol than in FIG. 3, cells were grown in the presence of 10% serum after withdrawal. The peptide TAT-DEF-c-Fos was applied at a single dose one day after withdrawal. Proliferation was tested using a BrdU assay; n=3; One-way ANOVA; Dunett post hoc test; * p<0.05; when compared to the group treated with 10% serum
Primary human coronary arterial endothelial cells (HCAEC) (Promocell C12222) were grown in Endothelial Cell Growth Medium MV2 (Promocell).
(§1) 10 000 cells per well were grown in the presence of complete medium. After one cycle of cell division (around 32 hours for HCAEC and vSMC, 24 hours for NIH3T3), the cells were starved for one other cycle (0.1% serum or nutriment supplement for HCAEC). […] Proliferation was analyzed after BrdU incorporation, which allows the visualization of cells under division. For HCAEC and vSMC, BrdU was added with inhibitor. For NIH3T3, it was added only during the last three hours. Cells were fixed in 4% paraformaldehyde.
(§2) Only the nuclei with an intact nucleus were taken into account. Image-Pro Plus software (Media Cybernetics) was used in order to quantify BrdU positive cells. The percentage of positive cells was reported to the total number of Hoechst-positive cells.

[3] = tested on: vSMC; test: Wound healing assay (invasiveness) in vSMC; type: cell-based, human; conditions: 24 to 72 hours, U0126 10 μM, Paclitaxel 10 nM, 10% serum
Procedure: The peptide was applied once, at the same time as 10% serum. The invasiveness was calculated as the percentage of cells over the size of the lesion, 24, 48 and 72 hours post-lesion.
Cells were cultured in 24-well plates as a confluent monolayer (30000 cells plated per well). […] Cells were fixed in 4% paraformaldehyde then stained with cresyl violet dye (1% in methanol). Pictures were taken to visualize the marked wound location. The wound healing effect was measured using the NIH ImageJ program and expressed as percentage of recovery of the lesion.
Invasive properties were studied using the wound healing protocol.
The percentage of lesion recovery was measured after cresyl violet staining of vSMC cells (FIG. 8).

[4] = tested on: NIH3T3 cells; test: Serum-induced proliferation of NIH3T3 fibroblasts, BrdU incorporation; type: cell-based, mouse; conditions: 10% serum; BrdU 3 h; peptide 1 to 12 μM, U0126 10 μM
Procedure: On day one, 10 000 cells per well were grown in the presence of 10% serum.
NIH 3T3 mouse embryonic fibroblast cells were grown in DMEM supplemented with 10% (v/v) heat-inactivated FBS, 100 U/ml penicillin, and 100 μg/ml streptomycin.
as §1, §2

[5] = tested on: malignant peripheral nerve sheat tumors (MPNST) from NF1 patients; test: Proliferation of MPNST cell lines from NF1 patients; type: cell-based; conditions: Homo sapiens, read-out: IC50, inhibition of proliferation of MPNST, 15% serum, control
Procedure: Human cell lines from malignant peripheral nerve sheat tumors (MPNST) were treated with either TAT-DEF-c-Fos at increasing doses, or as a control, with Rapamycin, an inhibitor of the mTOR pathway that is classically used as an inhibitor of proliferation on this cell line. The TAT-DEF-c-Fos peptide inhibited proliferation of MPNST at very low doses when compared to Rapamycin (IC50 for TAT-DEF-c-Fos around 10 μM instead of 10 mM for Rapamycin).
Malignant Peripheral Nerve Sheath Tumors (MPNST: from NF1 patients) were obtained from Michel Videaud's laboratory. 2000 cells were grown in the presence of 15% serum after withdrawal.
The inventors tested the efficacy of TAT-DEF-c-Fos on malignant NF1 cell proliferation (FIG. 9). For this purpose, the inventors used Human cell lines from malignant peripheral nerve sheat tumors (MPNST) from NF1 patients.
The MPNST cell lines were derived from a recurrent mass associated with peripheral nerve sheat and diagnosed as MPNST (Malignant Peripheral Nerve Sheath Tumor) in patients meeting NF1 diagnostic criteria.

[6] = tested on: vascular smooth muscle cells (vSMC); test: Serum-induced proliferation of vSMC, BrdU incorporation; type: cell-based, human; conditions: 3, 6 and 12 μM, 10% serum
Procedure: On day one, 10 000 cells per well were grown in the presence of 10% serum. […] On the bases of our previous results in neuronal cells (see Lavaur et al., 2007) three different doses of pepsignal were tested: from 3 to 12 μM.
Using the same protocol as in FIG. 3, cells were grown in the presence of 10% FBS (serum) after withdrawal. The peptide TAT-DEF-c-Fos was applied once (6 or 12 μM) on day one (first day after withdrawal) and proliferation was tested using a BrdU assay 24, 48 or 72 hours later. When indicated, multiple applications of the peptide were done (“m”) every 24 hours. Note that the TAT-DEF-c-Fos12 μM is not reported herein; n=3; Two-way ANOVA; Bonferroni post hoc test; *** p<0.001 when compared to the group treated with 10% serum.
Primary vascular smooth muscle cells (vSMC) (ATCC CRL-1999) were grown in DMEM F12K medium supplemented 0.05 mg/ml ascorbic acid; 0.01 mg/ml insulin; 0.01 mg/ml transferrin; 10 ng/ml sodium selenite; 10% (v/v) heat-inactivated FBS (Fetal Bovine Serum), 100 U/ml penicillin, and 100 μg/ml streptomycin, 10 mM HEPES.
10 000 cells per well were grown in the presence of complete medium. […] Proliferation was analyzed after BrdU incorporation, which allows the visualization of cells under division. […]
Only the nuclei with an intact nucleus were taken into account. Image-Pro Plus software (Media Cybernetics) was used in order to quantify BrdU positive cells. […]

Compound: CC[C@H](C)[C@H](NC(=O)[C@H](CCCCN)NC(=O)[C@@H](NC(=O)[C@H](CCC(N)=O)NC(=O)[C@@H](N)CCCNC(=N)N)[C@@H](C)CC)C(=O)N[C@@H](Cc1c[nH]c2ccccc12)C(=O)N[C@@H](Cc1ccccc1)C(=O)N[C@@H](Cc1c[nH]c2ccccc12)C(=O)N[C@@H](CC(N)=O)C(=O)N[C@@H](CCCNC(=N)N)C(=O)N[C@@H](CCCNC(=N)N)C(=O)N[C@@H](CCSC)C(=O)N[C@@H](CCCCN)C(=O)N[C@@H](Cc1c[nH]c2ccccc12)C(=O)N[C@@H](CCCCN)C(=O)N[C@@H](CCCCN)C(=O)N1CCC[C@H]1C(=O)N1CCC[C@H]1C(=O)N[C@@H](CS)C(=O)N[C@H](C(=O)N[C@H](C(=O)N[C@@H](Cc1ccc(O)cc1)C(=O)N[C@H](C(=O)N[C@@H](CO)C(=O)N[C@@H](CO)C(=O)N[C@@H](Cc1ccccc1)C(=O)N[C@H](C(=O)N[C@@H](Cc1ccccc1)C(=O)N[C@H](C(=O)N[C@@H](Cc1ccc(O)cc1)C(=O)N1CCC[C@H]1C(=O)N[C@@H](CCC(=O)O)C(=O)N[C@@H](C)C(=O)N[C@@H](CC(=O)O)C(=O)N[C@@H](CO)C(=O)N[C@@H](Cc1ccccc1)C(=O)N1CCC[C@H]1C(=O)N[C@@H](CO)C(=O)O)[C@@H](C)O)C(C)C)[C@@H](C)O)[C@@H](C)O)[C@@H](C)O [Penetratin-DEF-c-Fos] (H-RQIKIWFWNRRMKWKKPPCTTYTSSFVFTYPEADSFPS-OH; N-terminus and C-terminus assumed)
- inhibition of proliferation of sNF96.2 ([1]; 100 μM): ~66%
- anti-proliferative properties on MPNST (words) [1]: lower efficacy than the TAT-DEF-c-Fos peptide

Compound: CC(=O)O[C@H]1C(=O)[C@@]2(C)[C@H]([C@H](OC(=O)c3ccccc3)[C@]3(O)C[C@H](OC(=O)[C@H](O)[C@@H](NC(=O)c4ccccc4)c4ccccc4)C(C)=C1C3(C)C)[C@]1(OC(C)=O)CO[C@@H]1C[C@@H]2O [Paclitaxel]
- inhibition of HCAEC cell proliferation [2]: efficient
- effect on vSMC invasiveness (wound healing) [3]: significant but transient effect

Compound: N#CC(=C(/N)Sc1ccccc1N)/C(C#N)=C(\N)Sc1ccccc1N [Peptide U0126, U0126]
- inhibition of HCAEC cell proliferation [2]: efficient
- inhibition of NIH3T3 fibroblast proliferation [4]: failed to inhibit proliferation
- effect on vSMC invasiveness (wound healing) [3]: lack of effect
- effect on vSMC invasiveness (wound healing) ([3]; listed as classical MEK inhibitor): failed to block invasiveness

Compound: TAT-DEF-JunB: SEQ ID NO: 37 GRKKRRQRRRPPTTPTPPGQYFYPRGGGSGGGAG (pepsignal)
- anti-proliferative properties on MPNST (words) [1]: lower efficacy than the TAT-DEF-c-Fos peptide

Compound: CO[C@H]1C[C@@H]2CC[C@@H](C)[C@@](O)(O2)C(=O)C(=O)N2CCCC[C@H]2C(=O)O[C@H]([C@H](C)C[C@@H]2CC[C@@H](O)[C@H](OC)C2)CC(=O)[C@H](C)/C=C(\C)[C@@H](O)[C@@H](OC)C(=O)[C@H](C)C[C@H](C)/C=C/C=C/C=C/1C [Rapamycin]
- pIC50 [5]: ~2.00

Compound: CC[C@H](C)[C@H](NC(=O)[C@H](Cc1c[nH]cn1)NC(=O)[C@@H](NC(=O)[C@H](CCC(N)=O)NC(=O)[C@H](C)NC(=O)[C@H](CO)NC(=O)CNC(=O)[C@H](CO)NC(=O)[C@H](CO)NC(=O)[C@@H]1CCCN1C(=O)[C@H](Cc1ccccc1)NC(=O)[C@H](CCC(N)=O)NC(=O)[C@H](Cc1ccccc1)NC(=O)[C@H](CO)NC(=O)[C@H](CC(C)C)NC(=O)[C@H](CCCCN)NC(=O)[C@H](C)NC(=O)[C@@H]1CCCN1C(=O)[C@H](CO)NC(=O)[C@@H]1CCCN1C(=O)[C@@H]1CCCN1C(=O)[C@H](CCCNC(=N)N)NC(=O)[C@H](CCCNC(=N)N)NC(=O)[C@H](CCCNC(=N)N)NC(=O)[C@H](CCC(N)=O)NC(=O)[C@H](CCCNC(=N)N)NC(=O)[C@H](CCCNC(=N)N)NC(=O)[C@H](CCCCN)NC(=O)[C@H](CCCCN)NC(=O)[C@H](CCCNC(=N)N)NC(=O)CN)C(C)C)C(=O)O [TAT-DEF-Elk-1] (H-GRKKRRQRRRPPSPAKLSFQFPSSGSAQVHI-OH; N-terminus and C-terminus assumed)
- anti-proliferative properties on vSMC (serum-induced proliferation) [6]: not and no effect
- inhibition of HCAEC cell proliferation [2]: no effect
- inhibition of NIH3T3 fibroblast proliferation [4]: no effect
- anti-proliferative properties on MPNST (words) [1]: slight inhibitory effect
- anti-proliferative properties on MPNST (words) ([1]; listed as TAT-DEF-Elk1): low anti-proliferative properties
- inhibition of proliferation of sNF96.2, maximum reached ([1]; even at higher doses (up to 100 μM)): < 50%
